Consider 20 compounds from US9260429B2, “Pyrido[3,4-B]indoles and methods of use” (Medivation Technologies, Inc., priority 2008, dated 2016).

Test [1] has as its target T1, human recombinant serotonin (5-Hydroxytryptamine) 5-HT6 receptor (Homo sapiens, UniProt P50406).
T1 construct: expressed in transfected cells; host or cells: human HeLa cells
The test can be described thus: Serotonin 5-HT6 radioligand binding ([3H]LSD). The conditions noted are these: 2 h; read-out: Percent Inhibition of ligand binding Serotonin (1 μM ligand concentration) 5-HT6. The essentials:
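Human 5-HT6 receptor expressed in HeLa cells, in Tris-HCl pH 7.4 with 150 mM NaCl, ascorbic acid and BSA. Compounds at 1 μM or lower (1% DMSO) incubated 120 min at 37° C with 1.5 nM [3H]LSD. Non-specific binding defined with serotonin; filter counting gives % inhibition of specific binding.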

Test [2] concerns the target T2, human recombinant dopamine D2L receptor (Homo sapiens, UniProt P14416).
T2 construct: expressed in transfected cells; host or cells: CHO cells
In words: Dopamine D2L radioligand binding ([3H]Spiperone). As to conditions: 2 h, 1 μM ligand conc.; read-out: Percent Inhibition of ligand binding Dopamine (1 μM ligand conc.) D2L. The gist of the method: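 CHO-expressed receptor in 50 mM Tris-HCl pH 7.4 with ascorbic acid, 0.001% BSA, 150 mM NaCl; 0.16 nM [3H]spiperone, 120 min at 25 °C; nonspecific binding with haloperidol.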

The target in test [3] is T3, human recombinant adrenergic α2A receptor (Homo sapiens, UniProt P08913).
T3 construct: expressed in transfected cells; host or cells: insect Sf9 cells
T3 sequence (P08913 1-465): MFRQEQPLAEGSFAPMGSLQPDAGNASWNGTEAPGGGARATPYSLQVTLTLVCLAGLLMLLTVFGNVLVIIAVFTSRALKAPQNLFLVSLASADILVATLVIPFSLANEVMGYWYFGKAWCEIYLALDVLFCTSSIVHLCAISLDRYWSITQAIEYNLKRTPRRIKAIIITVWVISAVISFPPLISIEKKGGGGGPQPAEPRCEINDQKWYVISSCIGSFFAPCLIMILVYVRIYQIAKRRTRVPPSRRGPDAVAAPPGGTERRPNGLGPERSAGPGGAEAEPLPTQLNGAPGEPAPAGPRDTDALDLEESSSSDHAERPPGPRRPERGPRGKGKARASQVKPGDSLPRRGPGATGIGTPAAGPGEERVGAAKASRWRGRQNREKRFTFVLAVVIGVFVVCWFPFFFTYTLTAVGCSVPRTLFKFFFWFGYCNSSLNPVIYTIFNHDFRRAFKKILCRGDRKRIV
In words: Adrenergic α2A radioligand binding ([3H]MK-912). As to conditions: 1 h; read-out: Percent Inhibition of ligand binding Adrenergic (1 μM ligand conc.) α2A. As for the experimental part:
To evaluate in radioligand binding assays the activity of compounds of the invention, human recombinant adrenergic α2A receptor expressed in insect Sf9 cells (Uhlen S et al. J Pharmacol Exp Ther. 271:1558, 1994) in a modified Tris-HCl buffer (50 mM Tris-HCl, pH 7.4, 12.5 mM MgCl2, 2 mM EDTA) was used. Compounds of invention were incubated with 1 nM [^3H]MK-912 for 60 minutes at 25° C. MK912 is (2S-trans)-1,3,4,5′,6,6′,7,12b-octahydro-1′,3′-dimethyl-spiro[2H-benzofuro[2,3-a]quinolizine-2,4′(1′H)-pyrimidin]-2′(3′H)-one hydrochloride Non-specific binding was estimated in the presence of 10 μM WB-4101 (2-(2,6-Dimethoxyphenoxyethyl)aminomethyl-1,4-benzodioxane hydrochloride). Receptor proteins were filtered and washed, the filters were then counted to determine [^3H]MK-912 specifically bound. Compounds were screened at 1 μM or lower, using 1% DMSO as vehicle. Biochemical assay results are presented as the percent inhibition of specific binding in Table 4.

The target of test [4] is T4, human recombinant serotonin (5-Hydroxytryptamine) 5-HT2C receptor (Homo sapiens, UniProt P28335).
T4 construct: expressed in transfected cells; host or cells: CHO-K1 cells
T4 sequence (P28335 33-458): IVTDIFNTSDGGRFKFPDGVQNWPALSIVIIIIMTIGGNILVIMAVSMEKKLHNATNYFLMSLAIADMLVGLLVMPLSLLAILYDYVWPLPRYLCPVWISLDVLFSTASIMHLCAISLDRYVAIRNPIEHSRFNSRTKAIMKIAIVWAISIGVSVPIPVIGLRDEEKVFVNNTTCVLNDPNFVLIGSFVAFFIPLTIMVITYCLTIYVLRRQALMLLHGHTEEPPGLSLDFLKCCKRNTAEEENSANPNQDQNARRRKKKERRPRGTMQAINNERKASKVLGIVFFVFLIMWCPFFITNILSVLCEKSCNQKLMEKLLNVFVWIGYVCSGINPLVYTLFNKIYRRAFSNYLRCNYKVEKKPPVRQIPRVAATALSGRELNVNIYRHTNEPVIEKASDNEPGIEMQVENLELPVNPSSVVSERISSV
The test can be described thus: Serotonin 5-HT2C radioligand binding ([3H]Mesulergine). As to conditions: for inhibition at 1 µM: 1 h, read-out: Percent Inhibition of ligand binding Serotonin (1 μM ligand concentration) 5-HT2C. On the procedure:
Compounds of the invention were incubated with 1 nM [^3H]Mesulergine for 60 minutes at 25° C. Non-specific binding was estimated in the presence of 1 μM Mianserin. Receptor proteins were filtered and washed, the filters were then counted to determine [^3H]Mesulergine specifically bound. […] Biochemical assay results are presented as the percent inhibition of specific binding in Table 5.

SMILES strings stand for the structures.

T1 sequence (P50406 whole entry): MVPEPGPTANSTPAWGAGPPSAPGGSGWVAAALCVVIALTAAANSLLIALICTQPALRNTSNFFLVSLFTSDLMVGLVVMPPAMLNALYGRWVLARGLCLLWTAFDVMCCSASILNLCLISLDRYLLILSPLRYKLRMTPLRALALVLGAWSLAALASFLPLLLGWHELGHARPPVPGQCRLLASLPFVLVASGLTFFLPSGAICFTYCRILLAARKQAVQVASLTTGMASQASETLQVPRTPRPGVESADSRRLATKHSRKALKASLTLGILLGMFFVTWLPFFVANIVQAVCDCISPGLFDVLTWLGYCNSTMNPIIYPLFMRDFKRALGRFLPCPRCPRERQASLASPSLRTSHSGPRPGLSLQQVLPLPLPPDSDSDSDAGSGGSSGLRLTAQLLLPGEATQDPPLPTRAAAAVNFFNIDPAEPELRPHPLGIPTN
T2 sequence (P14416 whole entry): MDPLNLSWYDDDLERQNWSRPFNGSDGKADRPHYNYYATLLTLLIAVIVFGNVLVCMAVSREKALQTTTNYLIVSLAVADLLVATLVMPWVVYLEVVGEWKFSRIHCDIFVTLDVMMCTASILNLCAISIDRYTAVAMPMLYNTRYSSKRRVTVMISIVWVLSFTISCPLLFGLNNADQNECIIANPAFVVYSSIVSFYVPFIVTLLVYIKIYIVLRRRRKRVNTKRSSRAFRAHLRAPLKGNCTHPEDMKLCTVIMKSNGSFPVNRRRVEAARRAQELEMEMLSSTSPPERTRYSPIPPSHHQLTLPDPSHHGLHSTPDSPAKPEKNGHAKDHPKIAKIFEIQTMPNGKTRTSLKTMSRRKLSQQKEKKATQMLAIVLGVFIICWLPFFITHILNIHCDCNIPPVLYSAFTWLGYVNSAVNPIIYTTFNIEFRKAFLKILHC

On to `CN1CCc2c(n(CC(=O)O)c3ccc(Cl)cc23)C1` [Compound 52, 2-(6-chloro-1,2,3,4-tetrahydro-2-methylpyrido[3,4-b]indol-9-yl)acetic acid], for which the inhibition at 1 µM in test [1] was -4%; in test [2] it was 1%; in test [3], 4%; in test [4], -4%.

Consider `Cc1ccc2c(c1)c1c(n2CC(=O)O)CN(C)CC1` [Compound 53, 2-(1,2,3,4-tetrahydro-2,6-dimethylpyrido[3,4-b]indol-9-yl)acetic acid], for which the inhibition at 1 µM in test [1] was -8%; in test [2], 6%; in test [3], 5%; in test [4], -3%.

On to `COC(=O)Cn1c2c(c3cc(Cl)ccc31)CCN(C)C2` [Compound 54, methyl 2-(6-chloro-2-methyl-3,4-dihydro-1H-pyrido[3,4-b]indol-9(2H)-yl)acetate], for which the inhibition at 1 µM is 8% in test [1], -16% in test [2] and 4% in test [3]. Also, in test [4] (1 μM ligand concentration), the “Percent Inhibition of ligand binding Serotonin (1 μM ligand concentration) 5-HT2C” value is given as −1%.

Take `CN1CCc2c(n(CC(=O)N3CCNCC3)c3ccc(Cl)cc23)C1` [Compound 55, 2-(6-chloro-2-methyl-3,4-dihydro-1H-pyrido[3,4-b]indol-9(2H)-yl)-1-(piperazin-1-yl)ethanone]: the inhibition at 1 µM in test [1] was 0%; in test [2], -6%; in test [3] it was 10%; in test [4], 13%.

As for `Cc1ccc(CCCn2c3c(c4cc(Cl)ccc42)CCN(C)C3)cn1` [Compound 56, 6-chloro-2-methyl-9-(3-(6-methylpyridin-3-yl)propyl)-2,3,4,9-tetrahydro-1H-pyrido[3,4-b]indole], the inhibition at 1 µM in test [1] was -3%; in test [2], 9%; in test [3], 7%; in test [4], -3%.

Consider `Cc1ccc2c(c1)c1c(n2CC(=O)N2CCCCC2)CN(C)CC1` [Compound 57, 2-(2,6-dimethyl-3,4-dihydro-1H-pyrido[3,4-b]indol-9(2H)-yl)-1-(piperidin-1-yl)ethanone], for which the inhibition at 1 µM in test [1] stood at 6%; in test [2], 6%; in test [3] it was 4%; in test [4], 14%.

On to `CN1CCc2c(n(CC(=O)N3CCCCC3)c3ccc(Cl)cc23)C1` [Compound 58, 2-(6-chloro-2-methyl-3,4-dihydro-1H-pyrido[3,4-b]indol-9(2H)-yl)-1-(piperidin-1-yl)ethanone], for which the inhibition at 1 µM is -7% in test [1], -5% in test [2], -12% in test [3] and 30% in test [4].

In the case of `CN1CCc2c(n(CC(O)c3ccccc3F)c3ccc(Cl)cc23)C1` (centres unmarked) [Compound 59, 2-(6-chloro-2-methyl-3,4-dihydro-1H-pyrido[3,4-b]indol-9(2H)-yl)-1-(2-fluorophenyl)ethanol], the inhibition at 1 µM is 60% in test [1], 35% in test [2], 91% in test [3] and 74% in test [4].

With `Cc1ccc2c(c1)c1c(n2CC(O)c2ccccc2F)CN(C)CC1` (centres unmarked) [Compound 60, 2-(2,6-dimethyl-3,4-dihydro-1H-pyrido[3,4-b]indol-9(2H)-yl)-1-(2-fluorophenyl)ethanol], the inhibition at 1 µM was determined as 62% in test [1], 18% in test [2], 79% in test [3] and 5% in test [4].

`Cc1ccc2c(c1)c1c(n2CC(C)(O)c2ccc(F)cc2)CN(C)CC1` (centres unmarked) [Compound 61, 1-(2,6-dimethyl-3,4-dihydro-1H-pyrido[3,4-b]indol-9(2H)-yl)-2-(4-fluorophenyl)propan-2-ol]: the inhibition at 1 µM in test [1] is 61%; in test [2], 41%; in test [3], 83%; in test [4], 81%.

For `CN1CCc2c(n(CC(C)(O)c3ccc(F)cc3)c3ccc(Cl)cc23)C1` (centres unmarked) [Compound 62, 1-(6-chloro-2-methyl-3,4-dihydro-1H-pyrido[3,4-b]indol-9(2H)-yl)-2-(4-fluorophenyl)propan-2-ol], the inhibition at 1 µM was determined as 77% in test [1], 81% in test [2], 90% in test [3] and 95% in test [4].

With `COc1ccc(C(O)Cn2c3c(c4cc(C)ccc42)CCN(C)C3)cc1OC` (centres unmarked) [Compound 66], the inhibition at 1 µM was 5% in test [1], 9% in test [2], 55% in test [3] and 48% in test [4].

Turning to `Cc1ccc2c(c1)c1c(n2CC(O)c2ccccc2)CN(C)CC1` (centres unmarked) [Compound 67], the inhibition at 1 µM came out at 51% in test [1], 21% in test [2], 85% in test [3] and 85% in test [4].

As for `COc1ccc(C(O)Cn2c3c(c4cc(Cl)ccc42)CCN(C)C3)cc1OC` (centres unmarked) [Compound 70], the inhibition at 1 µM in test [1] came to 21%; in test [2], 0%; in test [3] it was 81%; in test [4], 63%.

Take `CN1CCc2c(n(CC(O)c3ccccc3)c3ccc(Cl)cc23)C1` (centres unmarked) [Compound 71]: the inhibition at 1 µM in test [1] is 66%; in test [2], 21%; in test [3], 88%; in test [4], 81%.

Consider `Cc1ccc(C(O)Cn2c3c(c4cc(C)ccc42)CCN(C)C3)cc1` (centres unmarked) [Compound 72], for which the inhibition at 1 µM came out at 61% in test [1], 24% in test [2], 93% in test [3] and 89% in test [4].

Take `CCC1c2c(c3cc(Cl)ccc3n2CCc2ccc(F)cc2)CCN1C` (centres unmarked) [Compound 78]: the inhibition at 1 µM in test [1] is 48%; in test [2], 11%; in test [3], 93%; in test [4], 101%.

For `CCC1c2c(c3cc(Cl)ccc3n2CC(C)(O)c2ccc(F)cc2)CCN1C` (centres unmarked) [Compound 79], the inhibition at 1 µM turned out to be 27% in test [1], 2% in test [2], 92% in test [3] and 77% in test [4].

For `Cc1ccc(CCn2c3c(c4cc(Cl)ccc42)CCN(C)C3C)cn1` (centres unmarked) [Compound 80], the inhibition at 1 µM was found to be 23% in test [1], 5% in test [2], 82% in test [3] and 79% in test [4].

Take `CC1c2c(c3cc(Cl)ccc3n2CCc2ccc(F)cc2)CCN1C` (centres unmarked) [Compound 81]: the inhibition at 1 µM in test [1] is 96%; in test [2], 21%; in test [3], 92%; in test [4] it was 88%.
